# Source: US20240140970A1, “A […], AND PREPARATION METHOD AND USE THEREOF” (ASCENTAWITS PHARMACEUTICALS, LTD., priority 2021, published 2024)
# What was measured:
# [1] = Stability of treated (extracted) human plasma samples of AST-2660 at 4° C. (LC-MS/MS); assay type: physicochemical; conditions: stored for 54 hours at 4° C.
# Description: The detection method established in example 4 was used to detect the content of AST-2660 in the human plasma to be tested.
# Matrix: the mixed normal human plasma containing anticoagulant (K2 EDTA) • a: the internal standard working solution: AST-2660-D8 was taken, added with methanol, and diluted to prepare a solution containing about 100 ng per 1 ml. • b: the solution to be tested (no internal standard compound was added to the solution to be tested at this time): it was obtained by taking a blood sample to be tested. • c: the standard working solution (no internal standard compound was added to the standard working solution at this time): an appropriate amount of AST-2660 was taken and accurately weighed, dissolved with methanol, and diluted to prepare a solution containing about 1.0 mg per 1 ml, which was used as the standard working stock solution. […]
# (§1) Calculation results: the relationship function y=f (x) of the ratio of the peak area of the AST-2660 to that of the internal standard was obtained from AST-2660 standard working solutions with different concentrations. The ratio of the peak area of the AST-2660 to that of the internal standard was determined from the solution to be tested after extraction, and substituted into the relationship function y=f (x) to calculate the concentration of the metabolite II in the solution to be tested.
# [2] = Stability of treated (extracted) human urine samples of AST-2660 at room temperature (LC-MS/MS); assay type: physicochemical; conditions: 94 hours at room temperature
# Description: The detection method established in example 6 was used to detect the content of AST-2660 in the human urine to be tested.
# Matrix: the mixed normal human urine containing an additive Na2HPO4·12H2O. • a: the internal standard working solution: AST-2660-D8 was taken, dissolved with methanol, and diluted to prepare a solution containing about 100 ng per 1 ml. • b: the solution to be tested (no internal standard compound was added to the solution to be tested at this time): it was obtained by taking a blood sample to be tested. • c: the standard working solution (no internal standard compound was added to the standard working solution at this time): an appropriate amount of AST-2660 was taken and accurately weighed, dissolved with methanol and diluted to prepare a solution containing about 1.0 mg per 1 ml, which was used as the standard working stock solution. […]
# as §1, with “area of AST-2660 to” for “area of the AST-2660 to”
smiles,measurement,setting,value
O=P([O-])(N1CC1)N1CC1.[Na+] [AST-2660],stability of content (in words),[1],stable
same,stability (in words),[2],stable
